In patent publication US8349837B2, “Pharmaceutical composition comprising racemic aminopterin” (Aminopterin, LLC, priority 2009, dated 2013):

Assay: Pharmacokinetics and oral absorption in Beagle dogs
Conditions: for Mean Plasma D-isomer: Beagle dogs N=10, oral capsule by gastric placement, 1 mg D-isomer
Procedure: Ten (N=10) Beagle dogs were enrolled in a pharmacokinetic study to examine the oral absorption of 1 tablet of the pure L-isomer tablet formulation (batch 116I0604), 1 mg of the D-isomer admixed with 99 mg microcrystalline cellulose, and 4 tablets of the racemic tablet formulation (batch 157I0907). Each formulation was encapsulated in a hard gelatin capsule and administered by direct gastric placement. Dosing of each formulation was separated by a 7 day washout period. The mean body weight of the ten dogs was 11.3±1.7 (SD) kilograms.
For pharmacokinetic analysis, venous blood samples with EDTA as anticoagulant were taken before each dosing and at 0.5, 1, 1.5, 2, 3, 6, 9 and 12 hours after each dosing. Samples were centrifuged, and the plasma collected and frozen for analysis. There was no urine sampling in this study. Aminopterin in plasma samples was quantitated by an achiral LC/MS assay (Advion Biosciences, Ithaca, N.Y.). The lower limit of quantitation (LLOQ) of the assay was 0.5 ng/ml or 1.2 nM. The amount of L-isomer and D-isomer in plasma samples from animals dosed with the racemate was determined using a chiral LC/MS assay.

[1] = Beagle dogs, oral, isomers given separately

Compound: Nc1nc(N)c2nc(CNc3ccc(C(=O)N[C@H](CCC(=O)O)C(=O)O)cc3)cnc2n1 (single isomer, unassigned) [D-isomer]
- Mean Plasma D-isomer (collection time 0.0 hr (before dosing)): 0.0000 µM
- Mean Plasma D-isomer (collection time 0.5 hr): 0.0050 µM
- Mean Plasma D-isomer (collection time 1.0 hr): 0.0117 µM
- Mean Plasma D-isomer (collection time 1.5 hr): 0.0150 µM
- Mean Plasma D-isomer (collection time 2.0 hr): 0.0152 µM
- Mean Plasma D-isomer (collection time 3.0 hr): 0.0106 µM
- Mean Plasma D-isomer (collection time 6.0 hr): 0.0034 µM
- Mean Plasma D-isomer (collection time 9.0 hr): 0.0023 µM
- Mean Plasma D-isomer (collection time 12.0 hr): 0.0026 µM
- oral absorption when given separately [1]: efficiently absorbed
- systemic exposure relative to that of the L-isomer (AUC ratio) [1]: approximately 30%

Compound: Nc1nc(N)c2nc(CNc3ccc(C(=O)N[C@@H](CCC(=O)O)C(=O)O)cc3)cnc2n1 [L-isomer]
- oral absorption when given separately [1]: efficiently absorbed
